Results reported in the NIST ThermoML archive (doi:10.1016/j.fluid.2011.07.018).
± gives the expanded uncertainty stated by the source.

Assay: xn = mol fraction of the nth substance listed
Settings: 298.15 K, 101 kPa, Liquid; for speed of sound: Linear variable-path acoustic interferometer; for mass density: Vibrating tube method

Clc1ccccc1Cl [1,2-dichlorobenzene] + C1CCOC1
Settings	mass density [kg/m3]	speed of sound [m/s]
x2 = 0	1300.35 ± 1.5	1269 ± 3
x2 = 0.0327	1288.55 ± 1.5	1274 ± 3
x2 = 0.155	1244.23 ± 1.4	1290 ± 3
x2 = 0.3046	1189.35 ± 1.3	1305 ± 3
x2 = 0.4457	1135.03 ± 1.2	1307 ± 3
x2 = 0.5709	1084.3 ± 1.1	1304 ± 3
x2 = 0.6161	1065.67 ± 1.1	1299 ± 3
x2 = 0.6885	1034.31 ± 1	1295 ± 3
x2 = 0.7973	984.99 ± 0.94	1283 ± 3
x2 = 0.8425	963.65 ± 0.93	1278 ± 3
x2 = 0.8852	942.63 ± 0.92	1274 ± 3
x2 = 0.9451	911.72 ± 0.91	1272 ± 3

Cc1ccccc1Cl [2-chlorotoluene] + C1CCOC1
Settings	mass density [kg/m3]	speed of sound [m/s]
x2 = 0	1077.63 ± 1	1295 ± 3
x2 = 0.1234	1057.75 ± 0.97	1324 ± 3
x2 = 0.264	1034.49 ± 0.93	1345 ± 3
x2 = 0.3444	1020.53 ± 0.9	1347 ± 3
x2 = 0.4669	998.27 ± 0.86	1348 ± 3
x2 = 0.5809	976.32 ± 0.84	1343 ± 3
x2 = 0.7119	949.73 ± 0.81	1331 ± 3
x2 = 0.7706	937.14 ± 0.8	1326 ± 3
x2 = 0.8264	924.69 ± 0.79	1318 ± 3
x2 = 0.8858	910.9 ± 0.78	1310 ± 3
x2 = 0.9564	893.59 ± 0.76	1298 ± 3

Cc1ccccc1[N+](=O)[O-] [2-nitrotoluene] + C1CCOC1
Settings	mass density [kg/m3]	speed of sound [m/s]
x2 = 0	1155.24 ± 1.2	2112 ± 3
x2 = 0.1021	1135.24 ± 1.1	2120 ± 3
x2 = 0.2146	1111.7 ± 1.1	2034 ± 3
x2 = 0.3019	1092.19 ± 1.1	1939 ± 3
x2 = 0.4211	1063.58 ± 1	1791 ± 3
x2 = 0.4509	1056.04 ± 0.99	1754 ± 3
x2 = 0.521	1037.67 ± 0.96	1677 ± 3
x2 = 0.6045	1014.59 ± 0.92	1593 ± 3
x2 = 0.7211	979.81 ± 0.87	1495 ± 3
x2 = 0.8014	953.93 ± 0.86	1433 ± 3
x2 = 0.9324	907.94 ± 0.82	1325 ± 3

C1CCOC1 [tetrahydrofuran] + Cc1ccccc1Cl
x1 = 1
Settings	mass density [kg/m3]	speed of sound [m/s]
–	882.09 ± 0.71	1270 ± 3

Clc1cccc(Cl)c1 [1,3-dichlorobenzene] + C1CCOC1
Settings	mass density [kg/m3]	speed of sound [m/s]
x2 = 0	1282.82 ± 1.5	1257 ± 2
x2 = 0.0332	1272.22 ± 1.5	1259 ± 3
x2 = 0.1432	1234.54 ± 1.4	1272 ± 3
x2 = 0.272	1189.62 ± 1.3	1276 ± 3
x2 = 0.3809	1150.84 ± 1.2	1277 ± 3
x2 = 0.5198	1099.15 ± 1.1	1276 ± 3
x2 = 0.6244	1057.78 ± 1	1275 ± 3
x2 = 0.696	1027.92 ± 1	1274 ± 3
x2 = 0.8044	980.28 ± 0.93	1270 ± 3
x2 = 0.845	961.47 ± 0.93	1265 ± 3
x2 = 0.8852	941.79 ± 0.92	1265 ± 3
x2 = 0.942	912.92 ± 0.9	1266 ± 3

C1CCOC1 [tetrahydrofuran] + Cc1ccccc1[N+](=O)[O-]
x1 = 1
Settings	mass density [kg/m3]	speed of sound [m/s]
–	882.09 ± 0.71	1270 ± 3

C1CCOC1 [tetrahydrofuran] + Clc1cccc(Cl)c1
x1 = 1
Settings	mass density [kg/m3]	speed of sound [m/s]
–	882.09 ± 0.71	1270 ± 3
